Assay results taken from patent US12617765B2, “Cannabinoid derivatives” (CANOPY GROWTH CORPORATION, priority 2019, dated 2026).
Read-outs that look alike come from different tables or passages of the source.

Experiments:
[1] = target: T1, human CB1 receptor (Homo sapiens, UniProt P21554); assay: CB1 radioligand competitive binding assay ([3H]CP 55,940 displacement)
T1 construct: host or cells: CHO-K1

[2] = target: T2, human CB2 receptor (Homo sapiens, UniProt P34972); assay: CB2 radioligand competitive binding assay ([3H]CP 55,940 displacement); conditions: for Selectivity CB2: fold difference in selectivity between CB1 and CB2 binding, in the column of the receptor with the higher binding affinity
T2 construct: host or cells: CHO-K1
T2 sequence (P34972 whole entry): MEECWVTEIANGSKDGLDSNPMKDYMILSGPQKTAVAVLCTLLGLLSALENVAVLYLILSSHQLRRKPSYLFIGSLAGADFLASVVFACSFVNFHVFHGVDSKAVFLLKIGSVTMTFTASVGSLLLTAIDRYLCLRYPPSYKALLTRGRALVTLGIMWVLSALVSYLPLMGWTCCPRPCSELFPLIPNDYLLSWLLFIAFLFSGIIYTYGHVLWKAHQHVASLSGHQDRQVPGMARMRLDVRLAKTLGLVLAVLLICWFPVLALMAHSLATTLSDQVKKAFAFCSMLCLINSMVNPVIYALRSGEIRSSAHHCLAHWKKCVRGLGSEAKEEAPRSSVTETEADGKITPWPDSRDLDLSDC
Description: Compounds of the present disclosure were tested for CB1 receptor binding affinity and for CB2 receptor binding affinity. As used herein, “binding affinity” is represented by the IC50 value, which was experimentally determined as described herein. The lower the IC50 value the higher the binding affinity. A compound of the present disclosure may be said to have “binding selectivity” if it has a higher binding affinity for one receptor compared to the other.
The membranes were prepared from CHO-K1 (Chinese hamster ovary) cells stably transfected with the human CB2 receptor (Cat. #ES-111-C; Perkin Elmer, Boston, Mass.). The cells were grown adherently and maintained in Ham's F12 medium containing 10% fetal bovine serum (FBS), penicillin, streptomycin and geneticin (G418) at 37° C. in a humid atmosphere of 5% CO2 following the manufacturer's instructions.
For membrane preparation the cells were washed with PBS and scraped off the plates in cold homogenization buffer (25 mM HEPES (pH 7.4), 2 mM EDTA) containing protease inhibitor cocktail (Sigma Cat. #P8340). The cell suspension was homogenized with a Pro-PK-01200D Polytron Homogenizer (Pro Scientific) and then centrifuged for 30 min at 120,000×g. The supernatant was discarded and the pellet was re-suspended in the homogenization buffer and stored at −80° C. until the time of use.
In this experiment, 3H radiolabeled CP 55,940, i.e. [3H]CP 55,940 (Perkin Elmer, Boston, Mass.), was used as a radioligand for the CB2 receptor to determine the binding affinity of compounds for the CB2 receptor (Scheme 5; above).
The competition binding experiments (single dose and dose-response) were performed by incubating 0.6 nM of [3H]CP55,940 (specific activity 101 Ci/mmol, Perkin Elmer) and different concentrations of compounds disclosed herein with membranes prepared as above from CHO-K1 cells expressing human CB2 receptor (1 μg of protein/well), 50 mM Tris-HCl (pH 7.4), 5 mM MgCl2, 1 mM CaCl2, and 2 mg/mL BSA.
For the single dose experiments, the compound stocks (usually 10 mM in DMSO) were diluted to working stocks in the binding buffer to give the final compound concentrations of 10 μM and 1 μM. For the dose-response experiments the test compounds were sequentially diluted to provide the desired concentration range for the IC50 determination. In each case the compounds were pre-incubated with the membrane for 20 min, before adding the radioligand.
After incubation with the radioligand for 60 min at 37° C., the incubation was terminated by rapid filtration of assay mixture through MultiScreen®HTS+96-well filter plates (Millipore, Cat. #MSFCNXB), pre-soaked for 60 min with 50 mM Tris-HCl (pH 7.4) containing 0.33% polyethylenimine (PEI). The nonspecific binding (NSB) was determined in the presence of 10 μM unlabelled CP55,940. After drying the filter plate at 50° C. for at least 60 min, the filter-bound radioactivity was determined by scintillation spectrometry using the 1450 MicroBeta Plate Counter (Perkin Elmer, Boston, Mass.). From the dose-response experiments, the IC50 values were determined (see Table 1, CB2 IC50).

[3] = 0.8 nM [3H]CP 55,940, membranes of CHO-K1 cells expressing human CB1 receptor, read-out: CB1 IC50
[4] = 0.6 nM [3H]CP55,940, membranes of CHO-K1 cells expressing human CB2 receptor, read-out: CB2 IC50

T1 sequence (P21554 whole entry): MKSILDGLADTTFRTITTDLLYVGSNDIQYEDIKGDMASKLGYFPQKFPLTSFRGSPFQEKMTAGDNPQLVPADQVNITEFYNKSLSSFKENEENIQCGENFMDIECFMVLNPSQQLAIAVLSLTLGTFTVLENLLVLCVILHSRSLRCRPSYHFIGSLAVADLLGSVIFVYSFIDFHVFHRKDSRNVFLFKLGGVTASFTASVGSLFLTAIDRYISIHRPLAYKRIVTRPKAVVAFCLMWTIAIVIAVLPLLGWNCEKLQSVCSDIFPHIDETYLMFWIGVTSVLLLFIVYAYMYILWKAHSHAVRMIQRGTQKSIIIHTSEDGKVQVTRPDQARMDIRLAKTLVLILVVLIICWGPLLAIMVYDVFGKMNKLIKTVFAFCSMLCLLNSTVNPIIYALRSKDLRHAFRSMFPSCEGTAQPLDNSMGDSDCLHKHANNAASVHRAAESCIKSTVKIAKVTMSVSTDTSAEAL

SMILES	IC50 [1, 3]	IC50 [2, 4]	Selectivity CB2 [2]	IC50 [1]	IC50 [2]
CCCCCc1cc(O)c(C/C=C(\C)CCC=C(C)C)c2c1C(=O)OCO2 [Compound 1, 8-(3,7-dimethylocta-2,6-dien-1-yl)-7-hydroxy-5-pentyl-4H-benzo[d][1,3]dioxin-4-one]	> 5 µM	1000 to 2490 nM	4.07 fold		
CCCCCc1cc(O)c(C/C=C(\C)CCC=C(C)C)c2c1C(=O)OC(c1ccccc1)O2 (stereo not drawn) [Compound 3, 8-(3,7-dimethylocta-2,6-dien-1-yl)-7-hydroxy-5-pentyl-2-phenyl-4H-benzo[d][1,3]dioxin-4-one]			1.19 fold	1 to 2.49 µM	1000 to 2490 nM
CCCCCc1cc(O)c(C/C=C(\C)CCC=C(C)C)c2c1C(=O)OC(C)(COC)O2 (stereo not drawn) [Compound 11, 8-(3,7-dimethylocta-2,6-dien-1-yl)-7-hydroxy-2-(methoxymethyl)-2-methyl-5-pentyl-4H-benzo[d][1,3]dioxin-4-one]			4.46 fold	2.5 to 4.99 µM	< 1000 nM
CCCCCc1cc(O)c(C/C=C(\C)CCC=C(C)C)c2c1C(=O)OC(CC(C)=O)(c1ccccc1)O2 (stereo not drawn) [Compound 12, 8-(3,7-dimethylocta-2,6-dien-1-yl)-7-hydroxy-2-(2-oxopropyl)-5-pentyl-2-phenyl-4H-benzo[d][1,3]dioxin-4-one]			4.31 fold	2.5 to 4.99 µM	< 1000 nM
CCCCCc1cc(O)c(C/C=C(\C)CCC=C(C)C)c2c1C(=O)OC(CC(C)=O)O2 (stereo not drawn) [Compound 14, 8-(3,7-dimethylocta-2,6-dien-1-yl)-7-hydroxy-2-(2-oxopropyl)-5-pentyl-4H-benzo[d][1,3]dioxin-4-one]	2.5 to 4.99 µM	1000 to 2490 nM	2.64 fold		
CCCCCc1cc(O)c(C/C=C(\C)CCC=C(C)C)c2c1C(=O)OC(CC)O2 (stereo not drawn) [Compound 16, 8-(3,7-dimethylocta-2,6-dien-1-yl)-2-ethyl-7-hydroxy-5-pentyl-4H-benzo[d][1,3]dioxin-4-one]	2.5 to 4.99 µM	1000 to 2490 nM	2.04 fold		
CCCCCc1cc(O)c(C/C=C(\C)CCC=C(C)C)c2c1C(=O)OC(CC(C)=O)(c1ccc(OC)cc1)O2 (stereo not drawn) [Compound 17, 8-(3,7-dimethylocta-2,6-dien-1-yl)-7-hydroxy-2-(4-methoxyphenyl)-2-(2-oxopropyl)-5-pentyl-4H-benzo[d][1,3]dioxin-4-one]	2.5 to 4.99 µM	< 1000 nM	5.45 fold		
CCCc1cc(O)c(C/C=C(\C)CCC=C(C)C)c2c1C(=O)OCO2 [Compound 18, 8-(3,7-dimethylocta-2,6-dien-1-yl)-7-hydroxy-5-propyl-4H-benzo[d][1,3]dioxin-4-one]			3.88 fold	> 5 µM	1000 to 2490 nM
CCCc1cc(O)c(C/C=C(\C)CCC=C(C)C)c2c1C(=O)OC(c1ccccc1)O2 (stereo not drawn) [Compound 19, 8-(3,7-dimethylocta-2,6-dien-1-yl)-7-hydroxy-2-phenyl-5-propyl-4H-benzo[d][1,3]dioxin-4-one]			3.92 fold	> 5 µM	1000 to 2490 nM
